The values that follow are results of earlier work, collected in patent publication US20240050502A1, “AMANITA MUSCARIA COMPOUNDS” (priority 2020, published 2024).

One data set has as its system mice. The note with it: for LD50: intravenous administration in mice.
For data set [1] the following is noted: in vivo.
In another data set the test system is monkey. The conditions noted are these: quantity many times that which would cause poisoning by ingestion of Amanita muscaria in the human.
Data set [2] deals with inflammatory pain induced by formalin. The note with it: mice.

Broadly, the LD50 is the dose expected to kill half of the subjects tested. Take `N[C@H](C(=O)O)c1cc(=O)[nH]o1` [ibotenic acid]: in the data set on mice, the LD50 is given as 15 mg/kg. Besides, the “oral LD50” value with mice (oral, mice) is 38 mg/kg. The “minimum dose needed to obtain psychedelic effects” value in data set [1] was 30 to 60 mg.
`C[C@@H]1O[C@H](C[N+](C)(C)C)C[C@H]1O` [muscarine]: in the data set on monkey, the activity by mouth result is “inactive”.
For the molecule `NCc1cc(=O)[nH]o1` [muscimol], the LD50 in the data set on mice is reported as 5.62 mg/kg. Besides, in data set [1], the “dose at which central nervous system intoxication occurs” value was 6.0 mg.
fucomannogalactan: the “inflammatory pain induced by formalin” value in data set [2] is recorded as “significantly reduced”.
β(1→6)-branched (1→3)-β-d-glucan: in the data set on sarcoma 180 tumors (mice), the “antitumor activity against sarcoma 180 tumors” value is “significant antitumor activity”. The “antitumor effect when mixed with mitomycin C” value in the data set on sarcoma 180 tumors (mixed with the chemotherapy drug mitomycin C) is on record as “greater than that of mitomycin C alone”.
